Read-outs that look alike come from different tables or passages of the source.
Experiments:
[1] = test system: Panc 03.27 MTAP Knock-out Clone 31; assay: 10-day proliferation screen with Compound A pre-treatment (Example 3); type: cell-based; details: Homo sapiens, read-out: Growth IC50
Description: (§1) A 10-day proliferation screen was performed in 15 pancreatic, non-small cell lung, and bladder cancer cell lines: 10 MTAP null and 5 MTAP wild-type. Optimal cell seeding for all cell lines was determined by assessing the growth over a range of seeding densities in a 384-well format to identify conditions that permitted proliferation for 10 days. […] Cells were incubated at 37° C. with 5% CO2 for 4 days to allow for target engagement of the pre-treatment compound. Maintaining the pre-treatment condition, cells were also treated with an 11-point, three-fold titration series of compounds from a chemically diverse library of 424 compounds. The combination compound concentrations ranged from 0.2 nM to 14,679 nM. A plate of cells was harvested at the time of combination compound addition to quantify the number of cells at the start of the combination (T0). For cell quantification, the harvested cells were lysed with CellTiter-Glo (CTG) (Promega) reagent according to the manufacturer's protocol and the chemiluminescent signal was detected on a Synergy Neo plate reader (ThermoFisher, serial #140715A). CTG estimates cell number through detection of cellular ATP levels. Cells were incubated with the drug combinations at 37° C. with 5% CO2 for an additional 6 days for a total of a 10-day assay including the pre-treatment. Cells were then lysed with CTG and the chemiluminescent signal was measured. CTG values obtained after the 10-day treatment were background subtracted, expressed as a percent of the T0 value, and plotted against compound concentration. Data were fit with a four-parameter equation to generate concentration response curves. Growth IC50 values and maximal growth inhibition were compared between the DMSO and the Compound A pre-treated cells for each combination titration. Combination hit calling was based on the observation of >2-fold shift in growth IC50 and/or greater than 20% […] in growth inhibition.

[2] = test system: Panc 03.27 Parent; assay: as above; type: cell-based; details: Homo sapiens, read-out: Growth IC50
Description: as §1

[3] = PANC-03-27, Cmpd A pre-treatment 15 nM

- IC50 [1, 3]: 873 nM
- IC50 ([1]; PANC-03-27, DMSO pre-treatment): 2170 nM
- IC50 [2, 3]: 618 nM
- IC50 ([2]; PANC-03-27, DMSO pre-treatment): 814 nM
Structure (SMILES): NS(=O)(=O)c1ccc(S(=O)(=O)Nc2cccc3c(Cl)c[nH]c23)cc1 [Indisulam, N-(3-chloro-1H-indol-7-yl)benzene-1,4-disulfonamide]

From patent publication US20260294915A1, “COMBINATION THERAPY COMPRISING A MAT2A INHIBITOR AND A TOPOISOMERASE INHIBITOR, A SPLICING INHIBITOR SULFONAMIDE, OR A KIF18 INHIBITOR” (IDEAYA BIOSCIENCES, INC., priority 2023, published 2026)
